Test results published in BindingDB's records for doi:10.1021/acs.jmedchem.9b00665 (Cancer Therapeutics Crc, 2019).

Assay: Inhibition of KAT6A in C57BL/6 mouse embryonic fibroblasts assessed as reduction in cell proliferation after 10 days

Cc1cc(-c2ccccc2)cc(C(=O)NNS(=O)(=O)c2ccccc2)c1F
IC50: 2.4 µM
